Reference: patent publication US20250345378A1 (priority 2022, published 2025)
Read-outs that look alike come from different tables or passages of the source.

Columns and labels:
[1] = system: 304 E. coli clinical isolates; type: cell-based, Escherichia coli; settings: 304-isolate panel
Method: (§1) Phage cocktail CK618 was tested in combination with and alongside antibiotics against two isolate panels. The first assay used a panel of 88 contemporaneous urinary tract infection (UTI) isolates from North America, Europe, Latin America, and Asia. […] The second assay used a panel made up of a 300-strain clinical isolate panel (Table 14) with an additional 4 strains of interest. […] Four of the same SOC antibiotics tested against the 88-isolate panel were tested against this panel. The non-SOC antibiotics were not included due to their limited use in clinical settings, and nitrofurantoin was not included due to the low probability of resistance to this drug.
(§2) For both isolate panels, antibiotic concentrations tested were determined by using Clinical and Laboratory Standards Institute (CLSI) or European Committee on Antimicrobial Susceptibility Testing (EUCAST) breakpoints at concentrations that kill susceptible isolates but allow intermediate or resistant isolates to grow in the standard AST microdilution assay (Table 17).
(§3) The composition of the proposed Phase 2 CRISPR-enhanced bacteriophage (CRISPR-phage, hereafter termed ‘crPhage’) cocktail (CK618) has been updated from the CK570 to include six bacteriophages as compared to three bacteriophages in CK570. Bacteriophage cocktail CK618, was prepared such that all bacteriophages had equivalent titers in the final cocktail. The cocktail was then mixed with bacteria to obtain final titers of 1×10^6 plaque-forming unit (PFU)/mL/phage for the cocktail and 1×10^5 colony-forming unit (CFU)/mL for the bacteria, resulting in a multiplicity of infection (MOI) of 10 for each bacteriophage in a sample. Briefly, 5 μl of each sample (CK618 alone, CK618 and antibiotics, antibiotics alone, or medium alone) was added to 5 μl of optical density (OD)-normalized bacterial isolate and 40 μl LB medium. Reactions were incubated at 37° C. with shaking and OD measurements were taken each hour for 20 hours.
(§4) Host range percentage is the percent of isolates that responded to treatment of antibiotics or CK618. In the case of the 88-isolate panel, results were analyzed on the complete panel as well as the subset of classified as multidrug-resistant (MDR) (n=21) and beta-lactam-resistant (n=31).
(§5) The first assay used a panel of 88 contemporaneous isolates. Twenty-one of those strains are classified as MDR, with resistance to 3 or more antibiotic classes. […] The second assay used the panel made up of a 300-strain clinical isolate panel with an additional 4 strains of interest.
(§6) Antibiotic concentrations tested were determined by using CLSI or EUCAST breakpoints at concentrations that kill susceptible strains but allow intermediate or resistant strains to grow in the standard AST microdilution assay (Table 27). LBP-EC01 v.2 was combined with bacteria resulting in a MO of 10 for each bacteriophage in a sample. In the case of the 88-isolate panel, results were analyzed on the complete panel as well as the subset of isolates classified as multidrug-resistant (MDR) (n=21) and beta-lactam-resistant (n=31).

[2] = system: 88 urinary tract infection E. coli isolates; type: cell-based, Escherichia coli
Method: as §1, §2, §3, §4, §5, §6

E. coli (ATCC 700928) = assay: Mouse UTI model, CK618 with TMP/SMX vs single agents and Phase 1b LBP-EC01 (Study 21-LOC-035); type: in vivo, C3H/OuJ mice; settings: BID IV at 48, 54, 72, 78, 96 hours p.i.
Method: For the LBP-EC01 from the Phase 1b study treatment, animals received the Phase 1 Clinical Trial Material. Bactrim was formulated at a concentration of 6.3 mg/mL.

Trimethoprim/Sulfamethoxazole [TMP/SXT]
Host range % on MDR subset (n = 93), Combination: Antibiotic + LBP-CK618 [1]: 75.3% | Host range % on MDR subset (n = 93), Single agent treatment [1]: 17.2% | Host range % on beta-lactam-resistant subset (n = 91), Combination: Antibiotic + LBP-CK618 [1]: 78.0% | Host range % on beta-lactam-resistant subset (n = 91), Single agent treatment [1]: 29.7% | Host Range % on MDR Subset (n = 93), Combination Antibiotic + LBP-EC01 v.2 ([1]; MDR subset, antibiotic combined with LBP-EC01 v.2): 75.3% | Host range % on MDR subset (n = 93), Single agent treatment ([1]; MDR subset, single agent): 17.2% | Host Range % on all Strains (n = 304), Combination: Antibiotic + LBP-EC01 v.2 ([1]; all strains, antibiotic combined with LBP-EC01 v.2): 81.9% | Host Range % on all Strains (n = 304), Single agent treatment ([1]; all strains, single agent): 46.4% | Host Range % on Beta-lactam-Resistant Subset (n = 91), Combination: Antibiotic + LBP-EC01 v.2 ([1]; beta-lactam-resistant subset, antibiotic combined with LBP-EC01 v.2): 78.0% | Host range % on beta-lactam-resistant subset (n = 91), Single agent treatment ([1]; beta-lactam-resistant subset, single agent): 29.7% | Host Range % on Beta-lactam-Resistant Subset (n = 31), Combination: Antibiotic + CK618 v.2 ([2]; 88-isolate panel): 83.9% | Host Range % on Beta-lactam-Resistant Subset (n = 31), Single agent treatment ([2]; 88-isolate panel): 25.8% | Host Range % on MDR Subset (n = 21), Combination: Antibiotic + CK618 v.2 ([2]; 88-isolate panel): 82.5% | Host Range % on MDR Subset (n = 21), Single agent treatment ([2]; 88-isolate panel): 19.0% | Host Range % on all Strains (n = 88), Single agent treatment ([2]; antibiotic at breakpoint concentration (Table 17), cocktail 1 × 10^6 PFU/ml per bacteriophage, MOI 10): 42.8% | Host Range % on all Strains (n = 88), Combination: Antibiotic + CK618 v.2 ([2]; antibiotic at breakpoint concentration plus cocktail 1 × 10^6 PFU/ml per bacteriophage): 85.6% | bacterial burden in bladder relative to vehicle and LBP-EC01 from the Phase 1b study, monotherapy (E. coli (ATCC 700928)): significant decrease in bacterial burden
